Results reported in ChEMBL document CHEMBL5154805, “From tryptophan-based amides to tertiary amines: Optimization of a butyrylcholinesterase inhibitor series” (Eur J Med Chem, 2022).

Columns and labels:
[1] = biological target: T1, Acetylcholinesterase (Homo sapiens, UniProt P22303); assay: Inhibition of recombinant human AChE assessed as residual activity at 3 uM using acetylthiocholine iodide as substrate preincubated for 1 to 30 mins followed by substrate addition by Ellman's method relative to control; details: time 1-30 min
[2] = biological target: T2, Acetylcholinesterase (Mus musculus, UniProt P21836); assay: Inhibition of mouse recombinant AChE assessed as reduction in cholinesterase activity using acetylthiocholine iodide as substrate preincubated for 1 to 30 mins followed by substrate addition by Ellman's method
T2 sequence (P21836 whole entry): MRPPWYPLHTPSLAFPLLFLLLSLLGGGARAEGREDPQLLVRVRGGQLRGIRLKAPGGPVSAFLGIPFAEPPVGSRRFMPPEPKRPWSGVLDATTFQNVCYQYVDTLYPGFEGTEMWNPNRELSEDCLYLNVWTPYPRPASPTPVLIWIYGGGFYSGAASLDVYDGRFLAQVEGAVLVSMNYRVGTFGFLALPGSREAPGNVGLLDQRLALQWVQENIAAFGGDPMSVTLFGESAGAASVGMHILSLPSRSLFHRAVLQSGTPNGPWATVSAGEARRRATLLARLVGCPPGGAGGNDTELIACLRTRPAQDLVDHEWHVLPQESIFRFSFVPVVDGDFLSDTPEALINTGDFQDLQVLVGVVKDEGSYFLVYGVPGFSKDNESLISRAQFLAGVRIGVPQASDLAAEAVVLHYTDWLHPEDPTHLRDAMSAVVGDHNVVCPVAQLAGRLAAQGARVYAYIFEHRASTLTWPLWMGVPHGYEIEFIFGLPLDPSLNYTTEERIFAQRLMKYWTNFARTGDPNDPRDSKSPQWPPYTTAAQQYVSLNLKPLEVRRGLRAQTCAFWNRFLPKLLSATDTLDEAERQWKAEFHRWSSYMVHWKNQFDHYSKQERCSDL

[3] = biological target: T3, Cholinesterase (Homo sapiens, UniProt P06276)
Description: Inhibition of recombinant human BChE using butyrylthiocholine iodide as substrate preincubated for 1 to 30 mins followed by substrate addition by Ellman's method

[4] = biological target: T1, Acetylcholinesterase; assay: Inhibition of recombinant human AChE using acetylthiocholine iodide as substrate preincubated for 1 to 30 mins followed by substrate addition by Ellman's method
[5] = biological target: Cholinesterases; ACHE & BCHE (Homo sapiens) (UniProt P06276+P22303); assay: Selectivity ratio of IC50 for recombinant human AChE to IC50 for recombinant human BChE; format: protein assay
[6] = biological target: T1, Acetylcholinesterase; assay: Inhibition of recombinant human AChE assessed as residual activity at 100 uM using acetylthiocholine iodide as substrate preincubated for 1 to 30 mins followed by substrate addition by Ellman's method relative to control; details: time 1-30 min
[7] = biological target: T3, Cholinesterase; remark: listed apart in the source
Description: Binding affinity to human recombinant BChE assessed as decarbamoylation rate by measuring half life

T1 sequence (P22303 whole entry): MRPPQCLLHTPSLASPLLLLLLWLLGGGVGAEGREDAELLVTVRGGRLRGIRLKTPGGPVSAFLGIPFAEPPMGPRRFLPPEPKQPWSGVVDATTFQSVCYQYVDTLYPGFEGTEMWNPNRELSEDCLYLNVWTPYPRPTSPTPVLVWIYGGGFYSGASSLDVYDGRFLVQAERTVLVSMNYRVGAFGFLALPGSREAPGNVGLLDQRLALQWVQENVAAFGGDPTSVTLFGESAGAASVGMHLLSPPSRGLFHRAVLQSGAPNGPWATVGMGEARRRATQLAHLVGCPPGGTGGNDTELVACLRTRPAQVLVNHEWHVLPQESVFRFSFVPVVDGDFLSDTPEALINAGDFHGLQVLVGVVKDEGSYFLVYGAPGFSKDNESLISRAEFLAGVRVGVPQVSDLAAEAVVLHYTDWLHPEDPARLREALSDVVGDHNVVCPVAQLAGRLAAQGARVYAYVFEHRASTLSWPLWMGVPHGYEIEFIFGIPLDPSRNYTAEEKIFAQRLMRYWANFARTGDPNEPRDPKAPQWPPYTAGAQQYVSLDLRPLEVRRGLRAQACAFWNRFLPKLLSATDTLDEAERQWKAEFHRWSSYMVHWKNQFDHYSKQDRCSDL
T3 sequence (P06276 whole entry): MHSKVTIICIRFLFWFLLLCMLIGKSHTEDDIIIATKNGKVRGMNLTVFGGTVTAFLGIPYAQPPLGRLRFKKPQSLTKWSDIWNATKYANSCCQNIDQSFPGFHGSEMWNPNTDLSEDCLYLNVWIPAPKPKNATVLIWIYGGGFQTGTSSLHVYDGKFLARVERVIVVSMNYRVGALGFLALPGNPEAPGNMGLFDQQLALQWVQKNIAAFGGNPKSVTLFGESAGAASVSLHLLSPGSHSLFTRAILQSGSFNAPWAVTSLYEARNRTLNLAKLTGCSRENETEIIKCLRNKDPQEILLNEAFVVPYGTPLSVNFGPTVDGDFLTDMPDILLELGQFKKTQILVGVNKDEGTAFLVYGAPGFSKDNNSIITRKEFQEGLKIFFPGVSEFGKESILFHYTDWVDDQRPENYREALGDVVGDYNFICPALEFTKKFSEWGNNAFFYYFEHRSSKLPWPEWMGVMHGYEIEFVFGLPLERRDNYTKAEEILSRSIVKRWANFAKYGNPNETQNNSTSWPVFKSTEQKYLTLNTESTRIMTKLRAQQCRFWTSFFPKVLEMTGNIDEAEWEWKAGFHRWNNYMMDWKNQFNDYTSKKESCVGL
Cholinesterases; ACHE & BCHE (Homo sapiens), sequence (P06276 whole entry, looked up): as the sequence (P06276 whole entry) above
Cholinesterases; ACHE & BCHE (Homo sapiens), sequence (P22303 whole entry, looked up): as the sequence (P22303 whole entry) above

| SMILES | Activity [1] | IC50 [3] | other results |
| --- | --- | --- | --- |
| CN(C)C1CCC(CCN(CCCc2c[nH]c3ccccc23)CCC2CCCCCC2)CC1 (stereo in doubt; 32b) [listing 1 of 2 here] | > 50% | – | – |
| CCCCN[C@H](CNCCC1CCCCCC1)Cc1c[nH]c2ccccc12 | > 50% | 10.1 nM | IC50 [2]: 12400 nM |
| CCCCN(CCC1CCCCCC1)Cc1ccc(OC(=O)N(C)C)c2ccccc12 | > 50% | 1.9 nM | IC50 [4]: 101 nM |
| CCCCN(CCC1CCCCCC1)Cc1cc(O)c2ccccc2c1 | > 50% | 4.7 nM | – |
| CCCCN(CCC1CCCCCC1)Cc1c[nH]c2cc(C#N)ccc12 | > 50% | 83.7 nM | – |
| CCCCN(CCC1CCCCCC1)Cc1cc(OC(=O)N(C)C)c2ccccc2c1 | > 50% | 2.4 nM | – |
| CN(CCC1CCCCCC1)Cc1c[nH]c2ccccc12 | > 50% | 60.4 nM | IC50 [4]: 25200 nM |
| CCCCN(CCC1CCCCCC1)CCC1CCc2ccccc21 (centres undefined) | > 50% | 6.5 nM | – |
| c1ccc2c(CCCN(CCC3CCCCCC3)CCC3CCCCC3)c[nH]c2c1 | > 50% | 4.9 nM | – |
| CCCCN(CCCc1cccc2ccccc12)CCC1CCCCCC1 | > 50% | 1.9 nM | – |
| CCCCN(CCCc1c[nH]c2ccccc12)CCC1CCC(N(C)C)CC1 (stereo in doubt; 33b) [listing 1 of 2 here] | – | 214 nM | – |
| CCCCN(CCOc1ccc2ccc(OC(=O)N(C)C)cc2c1)CCC1CCCCCC1 | > 50% | 11.7 nM | – |
| c1ccc2c(CCNCCC3CCCCCC3)c[nH]c2c1 | > 50% | 31.5 nM | – |
| CCCCN1CCN(CCCC2CCCCCC2)C[C@@H]1Cc1c[nH]c2ccccc12 | > 50% | 5 nM | IC50 [2]: 10300 nM; Ratio IC50 [5]: > 1000 |
| CCCCN(CCc1c[nH]c2ccc(O)cc12)CCC1CCCCCC1 | > 50% | 33.5 nM | Activity [6]: 79% |
| CN(C)c1ccc(/C=C/CN(CCCc2c[nH]c3ccccc23)CCC2CCCCCC2)cc1 | > 50% | 4.6 nM | Activity [6]: 54% |
| CCCCN(CCC1CCCCCC1)Cc1c[nH]c2cc(Br)ccc12 | > 50% | 3.6 nM | – |
| CCCCN(CCCc1c[nH]c2ccccc12)CCC1CCC(N(C)C)CC1 (stereo in doubt; 33b) [listing 2 of 2 here] | > 50% | – | – |
| CCCCN(CCC1CCCCCC1)Cc1cc2ccccc2cc1O | > 50% | 33.7 nM | IC50 [4]: 18600 nM |
| CN(CCC1CCCCCC1)Cc1c(-c2nnn[nH]2)[nH]c2ccccc12 | > 50% | 929 nM | – |
| CCCCN(CCc1c[nH]c2cc(OC(=O)N(C)C)ccc12)CCC1CCCCCC1 | > 50% | – | T1/2 [7]: 14.8 h |
| CN1CCN(CCC2CCCCCC2)C[C@@H]1Cc1c[nH]c2ccccc12 | > 50% | 10.5 nM | Activity [6]: 39% |
| CCCCN(CCCc1c[nH]c2ccccc12)CCC1CCCCCC1 | > 50% | 2.4 nM | – |
| CN(CCC1CCCCCC1)Cc1cccc2[nH]ccc12 | > 50% | 349 nM | – |
| CCCCN(CCc1c[nH]c2c(O)cccc12)CCC1CCCCCC1 | > 50% | – | Activity [6]: 69% |
| CCCCN(CCc1c[nH]c2ccccc12)CCC1CCCCCC1 | > 50% | 5 nM | – |
| c1ccc2c(c1)CCC2CCN(CCCc1c[nH]c2ccccc12)CCC1CCCCCC1 (centres undefined) | > 50% | 6.3 nM | – |

| SMILES | Activity [1] | IC50 [3] | other results |
| --- | --- | --- | --- |
| CCCC[N+]([O-])(CCc1c[nH]c2ccccc12)CCC1CCCCCC1 (centres undefined) | > 50% | 107 nM | Activity [6]: 86% |
| CN(C)C1CCC(CCN(CCCc2c[nH]c3ccccc23)CCC2CCCCCC2)CC1 (stereo in doubt; 32a) [listing 1 of 2 here] | – | 1.9 nM | IC50 [4]: 12600 nM |
| CCCCN(CCc1cn(C(=O)N(C)C)c2ccccc12)CCC1CCCCCC1 | > 50% | 0.87 nM | – |
| CCCCN(CCc1c(-c2ccccc2OC(=O)N(C)C)[nH]c2ccccc12)CCC1CCCCCC1 | > 50% | 5.4 nM | – |
| CN(C)C1CCC(CCN(CCCc2c[nH]c3ccccc23)CCC2CCCCCC2)CC1 (stereo in doubt; 32a) [listing 2 of 2 here] | > 50% | – | – |
| CCCCN(CCc1c(-c2ccccc2O)[nH]c2ccccc12)CCC1CCCCCC1 | > 50% | 16.8 nM | – |
| CCCCN(CCC1CCCCCC1)Cc1cn(OC(=O)N(C)C)c2ccccc12 | > 50% | 133 nM | IC50 [4]: 152 nM |
| CCCCN(C)[C@@H](Cc1c[nH]c2ccccc12)CN(C)CCC1CCCCCC1 | > 50% | 3 nM | IC50 [2]: 23400 nM |
| CCCCN(CCc1c[nH]c2cc(O)ccc12)CCC1CCCCCC1 | > 50% | – | IC50 [4]: 70600 nM |
| CCCCN(CCCc1c[nH]c2ccccc12)CCC1CCC(N(C)C)CC1 (stereo in doubt; 33a) [listing 1 of 2 here] | > 50% | – | – |
| CN(CCc1c[nH]c2ccccc12)CCC1CCCCCC1 | > 50% | – | – |
| CN(C)C1CCC(CCN(CCCc2c[nH]c3ccccc23)CCC2CCCCCC2)CC1 (stereo in doubt; 32b) [listing 2 of 2 here] | – | 4.1 nM | IC50 [4]: 8570 nM |
| CN(CCC1CCN(Cc2ccccc2)CC1)Cc1c[nH]c2ccccc12 | > 50% | 1710 nM | IC50 [4]: 33900 nM |
| CCCCN(CCOc1cccc2c(OC(=O)N(C)C)cccc12)CCC1CCCCCC1 | > 50% | 5.8 nM | IC50 [4]: 47.9 nM |
| CCCCN(CCCc1cc2ccccc2[nH]1)CCC1CCCCCC1 | > 50% | 4.7 nM | Activity [6]: 74% |
| CCCCN(CCC1CCCCCC1)Cc1c[nH]c2ncccc12 | > 50% | 83 nM | Activity [6]: 57% |
| CCCCN(CCC1CCCCCC1)Cc1c[nH]c2ccccc12 | > 50% | 13.3 nM | – |
| CCCCN(CCC1CCCCCC1)Cc1cc2ccccc2cc1OC(=O)N(C)C | > 50% | 2.2 nM | – |
| CCCCN(CCCc1ccc2ccccc2c1)CCC1CCCCCC1 | > 50% | 5.1 nM | Activity [6]: 56% |
| CCCCN(CCCc1c[nH]c2ccccc12)CCC1CCN(Cc2ccccc2)CC1 | > 50% | 29.3 nM | IC50 [4]: 7840 nM |
| CCCCN1CN(CCC2CCCCCC2)C[C@@H]1Cc1c[nH]c2ccccc12 | > 50% | 8.7 nM | IC50 [2]: 11000 nM; Ratio IC50 [5]: > 1000 |
| CCCCN(CCc1c[nH]c2c(OC(=O)C(C)C)cccc12)CCC1CCCCCC1 | > 50% | – | IC50 [4]: 1370 nM; T1/2 [7]: 15.2 h |
| CCCCN(CCc1c[nH]c2ccc(OC(=O)N(C)C)cc12)CCC1CCCCCC1 | > 50% | 6.9 nM | – |
| CCCCN(CCCc1c[nH]c2ccc(F)cc12)CCC1CCCCCC1 | > 50% | 6 nM | – |
| CCCCN(CCCc1c[nH]c2ccccc12)CCC1CCC(N(C)C)CC1 (stereo in doubt; 33a) [listing 2 of 2 here] | – | 205 nM | – |
| CCCC[N+](C)(CCCc1c[nH]c2ccccc12)CCC1CCCCCC1 (centres undefined) | > 50% | 2.3 nM | IC50 [4]: 23200 nM |
| CCCCN(CCCC1CCNc2ccccc21)CCC1CCCCCC1 (centres undefined) | > 50% | 54.8 nM | Activity [6]: 65% |
